Literature values, collected in patent US20110015154A1, “SUPPORTING ACETYLCHOLINE FUNCTION” (priority 2009, published 2011).

Experiments:
[1] = supplementation
cells = conditions: against hydrogen peroxide, beta-amyloid protein, glutamate, ischemia, staurosporine-induced cytotoxicity, and apoptosis
[2] = tested on: nuclear factor-kappa B (NFκB); conditions: after 14 days of administration
M1 receptors = conditions: adult rats
[3] = in vivo
M2 receptors = conditions: adult rats

CC(=O)O[C@H](CC(=O)[O-])C[N+](C)(C)C [acetyl-L-carnitine]
pain in patients with diabetic peripheral neuropathy [1]: reduce pain

C/C=C1\[C@H]2C=C(C)C[C@]1(N)c1ccc(=O)[nH]c1C2 [huperzine A, Huperzine A]
cell protection (cells): protects cells
activation of glial cells in an ischemic event [2]: reduced
nuclear translocation of transcription factor NFκB [2]: inhibited
overexpression of pro-inflammatory mediators in an immune challenge [2]: decreased

C[N+](C)(C)CCOP(=O)([O-])OC[C@H](O)CO [α-GPC, Alpha-glycerylphosphorylcholine]
effect on M1 receptors (M1 receptors): countered the loss of M1 receptors
blood-brain barrier passage [3]: can cross the blood-brain barrier
metabolism [3]: rapidly metabolized into choline and glycerophosphate
effect on M2 receptors (M2 receptors): no effect
